# Assay results: publication PMC11240139, “Exploring the antitumor potential of novel quinoline derivatives via tubulin polymerization inhibition in breast cancer; design, synthesis and molecular docking” (RSC Advances, 2024)
# What was measured:
# [1] = tested on: CCRF-CEM (leukemia); assay: NCI-60 SRB cytotoxicity screen; type: cell-based; conditions: Homo sapiens, single dose 10 μM, read-out: growth inhibition (GI%)
# [2] = tested on: RPMI-8226 (leukemia); assay: NCI-60 SRB cytotoxicity screen; type: cell-based; conditions: Homo sapiens; RPMI-8226, single dose 10 μM; read-out: growth inhibition (GI%)
# [3] = tested on: HOP-62 (non-small cell lung cancer); assay: NCI-60 SRB cytotoxicity screen; type: cell-based; conditions: Homo sapiens; HOP-62, single dose 10 μM; read-out: growth inhibition (GI%)
# [4] = tested on: HOP-92 (non-small cell lung cancer); assay: NCI-60 SRB cytotoxicity screen; type: cell-based; conditions: Homo sapiens; HOP-92, single dose 10 μM; read-out: growth inhibition (GI%)
# [5] = tested on: NCI-H226 (non-small cell lung cancer); assay: NCI-60 SRB cytotoxicity screen; type: cell-based; conditions: Homo sapiens; NCI-H226, single dose 10 μM; read-out: growth inhibition (GI%)
# [6] = tested on: NCI-H460 (non-small cell lung cancer); assay: NCI-60 SRB cytotoxicity screen; type: cell-based; conditions: Homo sapiens; NCI-H460, single dose 10 μM; read-out: growth inhibition (GI%)
# [7] = tested on: HT29 (colon cancer); assay: NCI-60 SRB cytotoxicity screen; type: cell-based; conditions: Homo sapiens, HT-29; HT29, single dose 10 μM; read-out: growth inhibition (GI%)
# [8] = tested on: KM12 (colon cancer); assay: NCI-60 SRB cytotoxicity screen; type: cell-based; conditions: Homo sapiens; KM12, single dose 10 μM; read-out: growth inhibition (GI%)
# [9] = tested on: SF-295 (CNS cancer); assay: NCI-60 SRB cytotoxicity screen; type: cell-based; conditions: Homo sapiens; SF-295, single dose 10 μM; read-out: growth inhibition (GI%)
# [10] = tested on: LOX IMVI (melanoma); assay: NCI-60 SRB cytotoxicity screen; type: cell-based; conditions: Homo sapiens, single dose 10 μM, read-out: growth inhibition (GI%)
# [11] = tested on: M14 (melanoma); assay: NCI-60 SRB cytotoxicity screen; type: cell-based; conditions: Homo sapiens; M14, single dose 10 μM; read-out: growth inhibition (GI%)
# [12] = tested on: MDA-MB-435 (melanoma); assay: NCI-60 SRB cytotoxicity screen; type: cell-based; conditions: Homo sapiens, MDA-MB-435, read-out: growth inhibition (GI%);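 also: growth inhibition in percent at a single 10 µM dose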
# [13] = tested on: SK-MEL-5 (melanoma); assay: NCI-60 SRB cytotoxicity screen; type: cell-based; conditions: Homo sapiens; SK-MEL-5, single dose 10 μM; read-out: growth inhibition (GI%)
# [14] = tested on: UACC-257 (melanoma); assay: NCI-60 SRB cytotoxicity screen; type: cell-based; conditions: Homo sapiens; UACC-257, single dose 10 μM; read-out: growth inhibition (GI%)
# [15] = tested on: IGROV1 (ovarian cancer); assay: NCI-60 SRB cytotoxicity screen; type: cell-based; conditions: Homo sapiens, IGROV-1; IGROV1, single dose 10 μM; read-out: growth inhibition (GI%)
# [16] = tested on: OVCAR-4 (ovarian cancer); assay: NCI-60 SRB cytotoxicity screen; type: cell-based; conditions: Homo sapiens; OVCAR-4, single dose 10 μM; read-out: growth inhibition (GI%)
# [17] = tested on: OVCAR-8 (ovarian cancer); assay: NCI-60 SRB cytotoxicity screen; type: cell-based; conditions: Homo sapiens; OVCAR-8, single dose 10 μM; read-out: growth inhibition (GI%)
# [18] = tested on: A498 (renal cancer); assay: NCI-60 SRB cytotoxicity screen; type: cell-based; conditions: Homo sapiens; A498, single dose 10 μM; read-out: growth inhibition (GI%)
# [19] = tested on: SN12C (renal cancer); assay: NCI-60 SRB cytotoxicity screen; type: cell-based; conditions: Homo sapiens, single dose 10 μM, read-out: growth inhibition (GI%)
# [20] = tested on: UO-31 (renal cancer); assay: NCI-60 SRB cytotoxicity screen; type: cell-based; conditions: Homo sapiens; UO-31, single dose 10 μM; read-out: growth inhibition (GI%)
# [21] = tested on: DU-145 (prostate cancer); assay: NCI-60 SRB cytotoxicity screen; type: cell-based; conditions: Homo sapiens; DU-145, single dose 10 μM; read-out: growth inhibition (GI%)
# [22] = tested on: MDA-MB-231/ATCC (breast cancer); assay: NCI-60 SRB cytotoxicity screen; type: cell-based; conditions: Homo sapiens, MDA-MB-231, read-out: growth inhibition (GI%);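 also: growth inhibition in percent at a single 10 µM dose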
# [23] = tested on: HS 578T (breast cancer); assay: NCI-60 SRB cytotoxicity screen; type: cell-based; conditions: Homo sapiens, single dose 10 μM, read-out: growth inhibition (GI%)
# [24] = tested on: T-47D (breast cancer); assay: NCI-60 SRB cytotoxicity screen; type: cell-based; conditions: Homo sapiens, T47D, single dose 10 μM, read-out: growth inhibition (GI%)
# [25] = tested on: MDA-MB-468 (breast cancer); assay: NCI-60 SRB cytotoxicity screen; type: cell-based; conditions: Homo sapiens; MDA-MB-468, single dose 10 μM; read-out: growth inhibition (GI%)
# Method: The cytotoxic activity of the synthesized quinoline derivatives was determined by the national cancer institute (NCI, Bethesda, Maryland, USA) against 60 different cancer cell lines at a single high dose (10^−5 M) in the full NCI 60 cell panel using the sulforhodamine B assay for cell viability evaluation. In summary, 5 × 10^3 cells were in 96-well plate and incubated in complete media for 24 h. Cells were treated with 100 μL of media containing each newly synthesized compound. After drug exposure, cells were fixed by replacing media with 150 μL of 10% TCA and incubated at 4 °C for 1 h. The TCA solution was removed, and the cells were washed 5 times with distilled water. Aliquots of 70 μL SRB solution (0.4% w/v) were added and incubated in a dark place at room temperature for 10 min. The plates were washed 3 times with 1% acetic acid and allowed to air-dry overnight. Then, 150 μL of TRIS (10 mM) was added to dissolve protein-bound SRB stain. The absorbance was measured at 540 nm.% Cytotoxicity = [1 − (AVx/AVNC)] × 100where AVx denotes the average absorbance of the sample well and AVNC denotes the average absorbance of the negative control.
# The methodology of the NCI anticancer screening has been described in details at (http://www.dtp.nci.nih.gov). The anticancer assay was performed in full NCI 60 cell lines derived from nine tumor subpanels, including leukemia, lung, colon, CNS, melanoma, ovarian, renal, prostate, and breast cancer cell lines.
# The cell lines were first cultured for 48 h, after being exposed to a single dosage of the compound. Using the protein-binding dye sulforhodamine B dye, cell proliferation and viability were evaluated (SRB assay). The results were presented for each chemical as GI%. Compound that met NCI criteria for substantial activity were further evaluated using a five-dose experiment. The NCI60 cell lines were treated with the chemicals in this assay at five different concentration levels (0.01, 0.1, 1, 10, and 100 μM).
Compound,inhibition at 10 µM [1] [%],inhibition at 10 µM [2] [%],inhibition at 10 µM [3] [%],inhibition at 10 µM [4] [%],inhibition at 10 µM [5] [%],inhibition at 10 µM [6] [%],inhibition at 10 µM [8] [%],inhibition at 10 µM [9] [%],inhibition at 10 µM [10] [%],inhibition at 10 µM [12] [%],inhibition at 10 µM [13] [%],inhibition at 10 µM [14] [%],inhibition at 10 µM [15] [%],inhibition at 10 µM [16] [%],inhibition at 10 µM [17] [%],inhibition at 10 µM [18] [%],inhibition at 10 µM [19] [%],inhibition at 10 µM [20] [%],inhibition at 10 µM [21] [%],inhibition at 10 µM [22] [%],further results
"CCc1cccc2cc(-c3cc(-c4ccc(Br)cc4)[nH]c(=S)c3C#N)c(Cl)nc12 [Compound 5e, 6-(4-Bromophenyl)-4-(2-chloro-8-ethylquinolin-3-yl)-2-thioxo-1,2-dihydropyridine-3-carbonitrile]",< 10,14.7,< 10,< 10,< 10,< 10,< 10,< 10,< 10,< 10,< 10,< 10,< 10,< 10,< 10,< 10,< 10,24.1,< 10,12.9,inhibition at 10 µM [7]: < 10%; inhibition at 10 µM [11]: 11%; inhibition at 10 µM [23]: < 10%; inhibition at 10 µM [24]: 10.4%; inhibition at 10 µM [25]: < 10%
"CCc1cccc2cc(-c3cc(-c4ccc(F)cc4)[nH]c(=O)c3C#N)c(Cl)nc12 [Compound 4d, 4-(2-Chloro-8-ethylquinolin-3-yl)-6-(4-fluorophenyl)-2-oxo-1,2-dihydropyridine-3-carbonitrile]",< 10,14,< 10,< 10,14.3,< 10,< 10,< 10,15.3,< 10,16.8,< 10,< 10,11,< 10,< 10,< 10,27.9,< 10,19.9,inhibition at 10 µM [23]: < 10%; inhibition at 10 µM [24]: 14.4%; inhibition at 10 µM [25]: < 10%; melting point: 260 to 262 °C
"CCc1cccc2cc(C3C=C(c4ccc(OC)cc4)NC(=S)N3)c(Cl)nc12 (centres unmarked) [Compound 6a, 4-(2-Chloro-8-ethylquinolin-3-yl)-6-(4-methoxyphenyl)-3,4-dihydropyrimidine-2(1H)-thione]",< 10,< 10,< 10,< 10,< 10,< 10,< 10,< 10,< 10,< 10,< 10,< 10,< 10,< 10,< 10,< 10,< 10,18.6,< 10,< 10,inhibition at 10 µM [7]: < 10%; inhibition at 10 µM [11]: 13.2%; inhibition at 10 µM [23]: < 10%; inhibition at 10 µM [24]: < 10%; inhibition at 10 µM [25]: < 10%
"CCc1cccc2cc(-c3cc(-c4ccc(Br)cc4)[nH]c(=O)c3C#N)c(Cl)nc12 [Compound 4e, 6-(4-Bromophenyl)-4-(2-chloro-8-ethylquinolin-3-yl)-2-oxo-1,2-dihydropyridine-3-carbonitrile]",< 10,< 10,< 10,< 10,< 10,< 10,< 10,< 10,< 10,< 10,13,< 10,< 10,10.8,< 10,< 10,< 10,17.8,< 10,< 10,inhibition at 10 µM [7]: < 10%; inhibition at 10 µM [11]: < 10%; inhibition at 10 µM [23]: < 10%; inhibition at 10 µM [24]: < 10%; inhibition at 10 µM [25]: < 10%
"CCc1cccc2cc(C3C=C(c4ccc(Br)cc4)NC(=S)N3)c(Cl)nc12 (centres unmarked) [Compound 6e, 6-(4-Bromophenyl)-4-(2-chloro-8-ethylquinolin-3-yl)-3,4-dihydropyrimidine-2(1H)-thione]",< 10,10.7,< 10,< 10,< 10,< 10,< 10,< 10,< 10,< 10,< 10,< 10,< 10,10.2,< 10,< 10,< 10,32.7,< 10,< 10,inhibition at 10 µM [7]: 11.9%; inhibition at 10 µM [11]: < 10%; inhibition at 10 µM [23]: < 10%; inhibition at 10 µM [24]: < 10%; inhibition at 10 µM [25]: < 10%
"CCc1cccc2cc(C3C=C(c4ccc(F)cc4)NC(=S)N3)c(Cl)nc12 (centres unmarked) [Compound 6d, 4-(2-Chloro-8-ethylquinolin-3-yl)-6-(4-fluorophenyl)-3,4-dihydropyrimidine-2(1H)-thione]",< 10,19.3,15.2,< 10,21.7,< 10,13.2,< 10,< 10,< 10,< 10,< 10,< 10,21,< 10,< 10,< 10,49.5,< 10,< 10,inhibition at 10 µM [7]: 28.3%; inhibition at 10 µM [11]: 10.8%; inhibition at 10 µM [23]: < 10%; inhibition at 10 µM [24]: 23.9%; melting point: 220 to 222 °C
